Laboratory results as given in ChEMBL document CHEMBL3727369, “2-cyanophenyl fused heterocyclic compounds, and compositions and uses thereof” (2013).

Each compound was assayed against P2X3 receptor (assay: Antagonist activity against rat or human P2X3 receptor expressed in HEK293/1321N1 cells assessed as inhibition of alpha,beta-meATP/ATP-induced calcium influx by Fluo-4 dye based FLIPR assay).
Assay type: functional, cell-based

SMILES	IC50 [nM]
N#Cc1cc(Cl)ccc1N1CCc2ncnc(NCc3ccc(Cl)c(-n4cnnc4)c3)c2C1	41
Cc1ccc(N2CCc3ncnc(NCc4ccc5c(c4)OCO5)c3C2)c(C#N)c1	56
Cc1ccc(N2CCc3ncnc(NCc4ccc5cc[nH]c5c4)c3C2)c(C#N)c1	423
N#Cc1cc(Br)ccc1N1CCc2ncnc(NCc3ccc(C(F)(F)F)nc3)c2C1	80
N#Cc1cc(F)ccc1N1CCc2ncnc(NCc3ccc(C(F)(F)F)nc3)c2C1	85
Cc1ccc(N2CCc3ncnc(NCc4ccc5cccnc5c4)c3C2)c(C#N)c1	20
Cc1ccc(N2CCc3ncnc(NC(CCO)c4ccc(C(F)(F)F)nc4)c3C2)c(C#N)c1 (configuration not stated)	55
Cc1ccc(N2CCc3ncnc(N[C@H](CO)c4ccc(C(F)(F)F)nc4)c3C2)c(C#N)c1	21
Cc1ccc(N2CCc3ncnc(NCc4ccccn4)c3C2)c(C#N)c1	196
Cc1ccc(N2CCc3ncnc(NCc4ccc5ocnc5c4)c3C2)c(C#N)c1	15
N#Cc1cc(Cl)ccc1N1CCc2ncnc(NCc3ccn4ccnc4c3)c2C1	122
Cc1nc(C(F)(F)F)ccc1CNc1ncnc2c1CN(c1ccc(Cl)cc1C#N)CC2	187
Cc1ccc(N2CCc3ncnc(NCc4ccc(C)c(S(C)(=O)=O)c4)c3C2)c(C#N)c1	16
N#Cc1cc(Cl)ccc1N1CCc2ncnc(NCc3ncc(C(F)(F)F)cc3Cl)c2C1	91
COc1ccc([C@@H](CCO)Nc2ncnc3c2CN(c2ccc(Cl)cc2C#N)CC3)cn1	33
Cc1ccc(N2CCc3ncnc(NCc4ccc(C)c(I)c4)c3C2)c(C#N)c1	512
N#Cc1cc(C(F)(F)F)ccc1N1CCc2ncnc(NCc3ccc(C(F)(F)F)nc3)c2C1	1840
N#Cc1cc(Cl)ccc1N1CCc2ncnc(N[C@H](CO)c3ccc(C(F)F)nc3)c2C1	16
Cc1ccc(N2CCc3ncnc(NCc4ccc5nccnc5c4)c3C2)c(C#N)c1	34

SMILES	IC50 [nM]
COc1ccc([C@H](CC(=O)OC(C)(C)C)Nc2ncnc3c2CN(c2ccc(Cl)cc2C#N)CC3)cn1	> 10000
COc1ccc([C@@H](CO)Nc2ncnc3c2CN(c2ccc(Cl)cc2C#N)CC3)cn1	23
Cc1ccc(N2CCc3ncnc(NCc4cccc(C#N)c4)c3C2)c(C#N)c1	183
Cc1ccc(N2CCc3ncnc(NCc4ccc(C)c(C#N)c4)c3C2)c(C#N)c1	63
N#Cc1cc(Cl)ccc1N1CCc2ncnc(NCc3ccc(C(F)(F)F)cn3)c2C1	118
Cc1ccc(N2CCc3ncnc(NCc4ncc(Cl)cc4Cl)c3C2)c(C#N)c1	41
N#Cc1cc(Cl)ccc1N1CCc2ncnc(NCc3ccc4nccnc4c3)c2C1	125
Cc1ccc(N2CCc3ncnc(NCc4cccc(-n5cnnc5)c4)c3C2)c(C#N)c1	65
Cc1ccc(CNc2ncnc3c2CN(c2ccc(Cl)cc2C#N)CC3)cc1S(C)(=O)=O	40
COc1ccc(CNc2ncnc3c2CN(c2ccc(Br)cc2C#N)CC3)cn1	78
Cc1ccc(N2CCc3ncnc(NCc4ccc(C)c(-n5cncn5)c4)c3C2)c(C#N)c1	21
CSc1cc(CNc2ncnc3c2CN(c2ccc(C)cc2C#N)CC3)ccc1C	474
Cc1ccc(N2CCc3ncnc(N[C@H](CCO)c4ccc(C(F)(F)F)nc4)c3C2)c(C#N)c1	23
Cc1ccc(N2CCc3ncnc(NCc4ccc(C(F)(F)F)nc4)c3C2)c(C#N)c1	19
CC(=O)OCC[C@@H](Nc1ncnc2c1CN(c1ccc(C)cc1C#N)CC2)c1ccc(C(F)(F)F)nc1	130
COc1ccc(CNc2ncnc3c2CN(c2ccc(Cl)cc2C#N)CC3)cn1	59
Cc1ccc(N2CCc3ncnc(NCc4ccc(C)c(F)c4)c3C2)c(C#N)c1	89
Cc1ccc(N2CCc3ncnc(NCc4ccc(C5CC5)cn4)c3C2)c(C#N)c1	236
N#Cc1cc(Cl)ccc1N1CCc2ncnc(N[C@H](CO)c3ccc(C(F)(F)F)nc3)c2C1	54

SMILES	IC50 [nM]
N#Cc1cc(Cl)ccc1N1CCc2ncnc(NCc3cccc(-n4cnnc4)c3)c2C1	284
Cc1ccc(N2CCc3ncnc(NCc4ccc(Cl)cn4)c3C2)c(C#N)c1	29
COc1ccc([C@@H](CC(=O)O)Nc2ncnc3c2CN(c2ccc(Cl)cc2C#N)CC3)cn1	1380
N#Cc1cc(Cl)ccc1N1CCc2ncnc(NCc3ccc(C(F)(F)F)nc3)c2C1	37
N#Cc1cc(Cl)ccc1N1CCc2ncnc(N[C@H](CCO)c3ccc(C(F)F)nc3)c2C1	32
Cc1ccc(N2CCc3ncnc(NCc4ccc5ccccc5n4)c3C2)c(C#N)c1	156
N#Cc1cc(Cl)ccc1N1CCc2ncnc(N[C@H](CCO)c3ccc(C(F)(F)F)nc3)c2C1	90
Cc1ccc(N2CCc3ncnc(NCc4ccc(Cl)nc4)c3C2)c(C#N)c1	11
Cc1ccc(N2CCc3ncnc(N[C@H](CCO)c4ccc(C(F)F)nc4)c3C2)c(C#N)c1	13
N#Cc1cc(C2CC2)ccc1N1CCc2ncnc(NCc3ccc(C(F)(F)F)nc3)c2C1	870
Cc1ccc(N2CCc3ncnc(N[C@@H](CCO)c4ccc(C(F)(F)F)nc4)c3C2)c(C#N)c1	806
CCc1ccc(CNc2ncnc3c2CN(c2ccc(C)cc2C#N)CC3)cn1	38
N#Cc1ccccc1N1CCc2ncnc(NCc3ccc(C(F)(F)F)nc3)c2C1	63
CN(C)c1ccc(CNc2ncnc3c2CN(c2ccc(Cl)cc2C#N)CC3)cn1	628
Cc1ccc(N2CCc3ncnc(NCc4ccc(C)c(N5CCOCC5)c4)c3C2)c(C#N)c1	96
Cc1ccc(N2CCc3ncnc(NCc4ccc(Cl)c(-n5cnnc5)c4)c3C2)c(C#N)c1	31
Cc1ccc(N2CCc3ncnc(NCc4ccn5ccnc5c4)c3C2)c(C#N)c1	18
Cc1ccc(N2CCc3ncnc(NCc4ccc(Cl)c(S(C)(=O)=O)c4)c3C2)c(C#N)c1	37

The compounds below were run against T1, P2X2/P2X3 heterotrimeric receptor (Homo sapiens, UniProt P56373+Q9UBL9) (assay: Antagonist activity against human P2X2/3 receptor expressed in HEK293/1321N1 cells assessed as inhibition of alpha,beta-meATP/ATP-induced calcium influx by Fluo-4 dye based FLIPR assay).
T1 sequence (Q9UBL9 whole entry): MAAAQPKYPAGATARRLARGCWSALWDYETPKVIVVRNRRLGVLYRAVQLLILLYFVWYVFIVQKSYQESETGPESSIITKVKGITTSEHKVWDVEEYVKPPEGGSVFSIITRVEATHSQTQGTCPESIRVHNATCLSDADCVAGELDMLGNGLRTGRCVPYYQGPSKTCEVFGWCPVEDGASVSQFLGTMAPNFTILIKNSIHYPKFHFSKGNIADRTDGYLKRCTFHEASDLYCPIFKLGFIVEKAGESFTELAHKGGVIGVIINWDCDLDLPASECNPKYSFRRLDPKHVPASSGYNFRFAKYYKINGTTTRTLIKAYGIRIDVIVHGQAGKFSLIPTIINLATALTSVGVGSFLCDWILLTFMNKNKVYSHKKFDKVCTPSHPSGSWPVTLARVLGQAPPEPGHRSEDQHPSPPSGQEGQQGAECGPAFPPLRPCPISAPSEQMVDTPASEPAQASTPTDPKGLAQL
T1 sequence (P56373 whole entry): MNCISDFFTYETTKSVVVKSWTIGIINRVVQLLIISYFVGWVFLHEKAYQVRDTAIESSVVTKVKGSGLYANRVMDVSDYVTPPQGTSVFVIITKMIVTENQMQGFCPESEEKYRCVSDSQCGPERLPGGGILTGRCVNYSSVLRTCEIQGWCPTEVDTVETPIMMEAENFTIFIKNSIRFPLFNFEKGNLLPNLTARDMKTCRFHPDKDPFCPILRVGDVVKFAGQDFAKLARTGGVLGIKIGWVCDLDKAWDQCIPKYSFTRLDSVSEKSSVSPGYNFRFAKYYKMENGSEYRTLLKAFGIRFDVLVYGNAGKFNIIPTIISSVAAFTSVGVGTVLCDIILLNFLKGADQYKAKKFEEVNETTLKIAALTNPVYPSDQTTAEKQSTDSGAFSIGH
Assay type: functional, cell-based

SMILES	IC50 [nM]
COc1ccc([C@H](CC(=O)OC(C)(C)C)Nc2ncnc3c2CN(c2ccc(Cl)cc2C#N)CC3)cn1	> 10000
